Numbered stars: 1 amine (or outer) side, 2 acyl side, 3 side chain; on linkers, the order of the positions; unused ones are H or OH. Bridge positions count the residues as written; N and C are the ends. Square brackets hold non-standard residues; d marks the D form. Peptide text beside a SMILES is read from it. * marks the point of attachment. ξ: configuration not given here. Phe(4-COOH) = N[C@@H](Cc1ccc(C(=O)O)cc1)C(=O)O; X16 = O=C([C@H](Cc1ccc2cnccc2c1)N[*:1])[*:2]; Bip = N[C@@H](Cc1ccc(-c2ccccc2)cc1)C(=O)O; Phe(3-OMe) = COc1cccc(C[C@H](N)C(=O)O)c1; dPhe(4-Cl) = N[C@H](Cc1ccc(Cl)cc1)C(=O)O; Phe(3-Me) = Cc1cccc(C[C@H](N)C(=O)O)c1; Val(3-OH) = CC(C)(O)[C@H](N)C(=O)O; 3Pal = N[C@@H](Cc1cccnc1)C(=O)O; 2Thi = N[C@@H](Cc1cccs1)C(=O)O; Cha = N[C@@H](CC1CCCCC1)C(=O)O; Cit = NC(=O)NCCC[C@H](N)C(=O)O; Thr(3ξ) = CC(O)[C@H](N)C(=O)O; Carboxymethyl = O=C(O)C*; NMeA = CN[C@@H](C)C(=O)O; Pra = C#CC[C@H](N)C(=O)O; Dab = NCC[C@H](N)C(=O)O

T1 sequence (Q15116 25-288): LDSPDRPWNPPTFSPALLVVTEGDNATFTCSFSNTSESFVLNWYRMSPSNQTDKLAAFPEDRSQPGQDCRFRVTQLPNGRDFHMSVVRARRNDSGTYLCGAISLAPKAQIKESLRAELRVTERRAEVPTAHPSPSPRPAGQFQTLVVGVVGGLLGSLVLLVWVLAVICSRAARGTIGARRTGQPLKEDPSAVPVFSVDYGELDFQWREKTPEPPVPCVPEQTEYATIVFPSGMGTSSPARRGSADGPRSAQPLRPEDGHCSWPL

This test has as its target T1, PE-labeled human PD-L1-Ig binding to Jurkat cell line over-expressing human PD-1 (Jurkat-PD-1) (Homo sapiens, UniProt Q15116).
T1 construct: expressed in transfected cells; host or cells: Jurkat
As to the kind of experiment: Jurkat-PD-1 Cell Binding High-Content Screening Assay (CBA): Method 1. The following applies: Jurkat-hPD-1 cells, PE-labeled PD-L1-Ig 20 nM final; read-out: Jurkat HPDL1 PD1 IC50 (uM) (Method 1).
`CC(C)C[C@@H]1NC(=O)[C@H](CCN)NC(=O)[C@@H](CC(C)C)NC(=O)[C@H](C)N(C)C(=O)[C@H](CCCNC(N)=O)NC(=O)[C@H](Cc2ccc(-c3ccccc3)cc2)NC(=O)[C@H](C(C)C)NC(=O)[C@H](Cc2c[nH]c3ccccc23)NC(=O)[C@H](CC(=O)O)NC(=O)[C@H](Cc2ccc(O)cc2)NC(=O)[C@H](Cc2ccc3cnccc3c2)NC(=O)CSC[C@@H](C(=O)N[C@@H](C)C(N)=O)NC(=O)[C@H](C(C)O)NC(=O)[C@H](C(C)C)NC1=O` (stereo partly drawn) [Compound 2037] ({CH2CO}-[X16]YDWV[Bip][Cit][NMeA][dL][Dab]LV[Thr(3ξ)]CA-NH2; thioether N-14): the IC50 is 0.02 µM.
Then `CC(C)C[C@@H]1NC(=O)[C@H](CCN)NC(=O)[C@@H](CC(C)C)NC(=O)[C@H](C)N(C)C(=O)[C@H](CCCNC(=N)N)NC(=O)[C@H](Cc2ccc(-c3ccccc3)cc2)NC(=O)[C@H](C(C)C)NC(=O)[C@H](Cc2cccs2)NC(=O)[C@H](CC(=O)O)NC(=O)[C@H](Cc2ccc(O)cc2)NC(=O)[C@H](CC(N)=O)NC(=O)CSC[C@@H](C(=O)N[C@@H](C)C(N)=O)NC(=O)[C@H]([C@@H](C)O)NC(=O)[C@H](C(C)C)NC1=O` [Compound 1218] ({CH2CO}-NYD[2Thi]V[Bip]R[NMeA][dL][Dab]LVTCA-NH2; thioether N-14), with 0.2 µM; and `CC(C)C[C@@H]1NC(=O)[C@H](CCCNC(=N)N)NC(=O)[C@@H](Cc2ccc(Cl)cc2)NC(=O)[C@H](C)N(C)C(=O)[C@H](CCCNC(=N)N)NC(=O)[C@H](Cc2ccc(-c3ccccc3)cc2)NC(=O)[C@H](C(C)C)NC(=O)[C@H](Cc2c[nH]c3ccccc23)NC(=O)[C@H](CC(=O)O)NC(=O)[C@H](Cc2ccc(O)cc2)NC(=O)[C@H](Cc2ccccc2)NC(=O)CSC[C@@H](C(=O)N[C@@H](C)C(N)=O)NC(=O)[C@H]([C@@H](C)O)NC(=O)[C@H](C(C)C)NC1=O` [Compound 1070] ({CH2CO}-FYDWV[Bip]R[NMeA][dPhe(4-Cl)]RLVTCA-NH2; thioether N-14), with 0.63 µM.
Then `C#CC[C@H](NC(=O)[C@H](CCN)NC(=O)[C@@H]1CSCC(=O)N[C@@H]([C@@H](C)O)C(=O)N[C@@H](Cc2ccc(OCC(=O)O)cc2)C(=O)N[C@@H](CC(=O)O)C(=O)N[C@@H](Cc2cccc(C)c2)C(=O)N[C@@H](Cc2ccc(OCC(=O)O)cc2)C(=O)N[C@@H](Cc2ccc(-c3ccccc3)cc2)C(=O)N[C@@H](Cc2ccc(OCC(=O)O)cc2)C(=O)N(C)[C@@H](C)C(=O)N[C@H](CC(C)C)C(=O)N[C@@H](CCN)C(=O)N[C@@H](CC2CCCCC2)C(=O)N[C@@H](C(C)(C)O)C(=O)N[C@@H](CCC(=O)O)C(=O)N1)C(=O)O` [Compound 1937] ({CH2CO}-TY(Carboxymethyl)D[Phe(3-Me)]Y(Carboxymethyl)[Bip]Y(Carboxymethyl)[NMeA][dL][Dab][Cha][Val(3-OH)]EC[Dab][Pra]-OH; thioether N-14), with 0.07 µM; and `Cc1cccc(C[C@@H]2NC(=O)[C@H](CC(=O)O)NC(=O)[C@H](Cc3ccc(OCC(=O)O)cc3)NC(=O)[C@H](Cc3ccc(OCC(=O)O)cc3)NC(=O)CSC[C@@H](C(N)=O)NC(=O)[C@H](CCC(=O)O)NC(=O)[C@H](C(C)C)NC(=O)[C@H](CC3CCCCC3)NC(=O)[C@H](CCN)NC(=O)[C@@H](CC(C)C)NC(=O)[C@H](C)N(C)C(=O)[C@H](Cc3ccc(OCC(=O)O)cc3)NC(=O)[C@H](Cc3ccc(-c4ccccc4)cc3)NC(=O)[C@H](Cc3ccc(OCC(=O)O)cc3)NC2=O)c1` [Compound 1657] ({CH2CO}-Y(Carboxymethyl)Y(Carboxymethyl)D[Phe(3-Me)]Y(Carboxymethyl)[Bip]Y(Carboxymethyl)[NMeA][dL][Dab][Cha]VEC-NH2; thioether N-14), with 0.05 µM; and `COc1cccc(C[C@@H]2NC(=O)[C@H](Cc3cccnc3)NC(=O)CSC[C@@H](C(=O)NCC(N)=O)NC(=O)[C@H](CO)NC(=O)[C@H](C(C)C)NC(=O)[C@H](CC(C)C)NC(=O)[C@H](CC(N)=O)NC(=O)[C@@H](CC(C)C)NC(=O)[C@H](C)N(C)C(=O)[C@H](C(C)C)NC(=O)[C@H](Cc3ccc(-c4ccccc4)cc3)NC(=O)[C@H](CC(C)C)NC(=O)[C@H](Cc3c[nH]c4ccccc34)NC(=O)[C@H](CC(=O)O)NC2=O)c1` [Compound 1524] ({CH2CO}-[3Pal][Phe(3-OMe)]DWL[Bip]V[NMeA][dL]NLVSCG-NH2; thioether N-14), with 0.01 µM.
Then `COc1ccc(C[C@H]2NC(=O)[C@H](C)N(C)C(=O)[C@H](CCCNC(=N)N)NC(=O)[C@H](Cc3ccc(-c4ccccc4)cc3)NC(=O)[C@H](C(C)C)NC(=O)[C@H](Cc3c[nH]c4ccccc34)NC(=O)[C@H](CC(=O)O)NC(=O)[C@H](Cc3ccc(O)cc3)NC(=O)[C@H](Cc3ccccc3)NC(=O)CSC[C@@H](C(=O)N[C@@H](C)C(N)=O)NC(=O)[C@H]([C@@H](C)O)NC(=O)[C@H](C(C)C)NC(=O)[C@H](CC(C)C)NC(=O)[C@H](CCCNC(=N)N)NC2=O)cc1` [Compound 1108] ({CH2CO}-FYDWV[Bip]R[NMeA][dY](Me)RLVTCA-NH2; thioether N-14), with 0.53 µM; and `CC(C)C[C@@H]1NC(=O)[C@H](Cc2c[nH]c3ccccc23)NC(=O)[C@H](CC(=O)O)NC(=O)[C@H](Cc2ccc(C(=O)O)cc2)NC(=O)[C@H](Cc2ccc(OCC(=O)O)cc2)NC(=O)CSC[C@@H](C(=O)N[C@H](C)C(N)=O)NC(=O)[C@H](CCC(=O)O)NC(=O)[C@H](C(C)(C)O)NC(=O)[C@H](CC2CCCCC2)NC(=O)[C@H](CCN)NC(=O)[C@@H](CC(C)C)NC(=O)[C@H](C)N(C)C(=O)[C@H](C(C)(C)O)NC(=O)[C@H](Cc2ccc(-c3ccccc3)cc2)NC1=O` [Compound 1715] ({CH2CO}-Y(Carboxymethyl)[Phe(4-COOH)]DWL[Bip][Val(3-OH)][NMeA][dL][Dab][Cha][Val(3-OH)]EC[dA]-NH2; thioether N-14), with 0.06 µM; and `CC(C)C[C@@H]1NC(=O)[C@H](Cc2c[nH]c3ccccc23)NC(=O)[C@H](CC(=O)O)NC(=O)[C@H](Cc2ccc(O)cc2)NC(=O)[C@H](Cc2ccccc2)NC(=O)CSC[C@@H](C(=O)N[C@@H](C)C(N)=O)NC(=O)[C@H](CO)NC(=O)[C@H](C(C)C)NC(=O)[C@H](CC(C)C)NC(=O)[C@H](CC(N)=O)NC(=O)[C@@H](Cc2ccccc2)NC(=O)[C@H](C)N(C)C(=O)[C@H](C(C)C)NC(=O)[C@H](Cc2ccc(-c3ccccc3)cc2)NC1=O` [Compound 1783] ({CH2CO}-FYDWL[Bip]V[NMeA][dF]NLVSCA-NH2; thioether N-14), with 0.09 µM.
Regarding `Cc1cccc(C[C@@H]2NC(=O)[C@H](CC(=O)O)NC(=O)[C@H](Cc3ccc(C(=O)O)cc3)NC(=O)[C@H](Cc3ccc(OCC(=O)O)cc3)NC(=O)CSC[C@@H](C(N)=O)NC(=O)[C@H]([C@@H](C)O)NC(=O)[C@H](C(C)C)NC(=O)[C@H](CC(C)C)NC(=O)[C@H](CC(N)=O)NC(=O)[C@@H](CC(C)C)NC(=O)[C@H](C)N(C)C(=O)[C@H](C(C)C)NC(=O)[C@H](Cc3ccc(-c4ccccc4)cc3)NC(=O)[C@H](CC(C)C)NC2=O)c1` [Compound 1682] ({CH2CO}-Y(Carboxymethyl)[Phe(4-COOH)]D[Phe(3-Me)]L[Bip]V[NMeA][dL]NLVTC-NH2; thioether N-14), the IC50 came to 0.09 µM.

What is called IC50 is the point on the concentration scale where inhibition reaches its midpoint.

For the origin of these results see patent publication US20240409585A1, “MACROCYCLIC IMMUNOMODULATORS” (priority 2021, published 2024).
